Source: patent US20070179161A1, “Pyrazolopyrimidine compounds and their use in medicine” (VERNALIS (CAMBRIDGE) LIMITED., priority 2003, published 2007)
Counter-ions that a name gives are not always drawn.

Experiments:
Assay type in all cases: biochemical
[1] = molecular target: CDK-2 enzyme, complexed with cyclin A (Homo sapiens, UniProt P24941); assay: CDK2 enzyme inhibition assay (33P phosphorylation of peptide […], filter plate); details: CDK-2/cyclin A, 0.1 mM ATP, 40 min at 30° C.
Description: (§1) The assay mixture containing the inhibitor and CDK-2 enzyme, complexed with cyclin A (0.4 U/ml) was mixed together in a microtiter plate in a final volume of 50 μl and incubated for 40 min at 30° C. The assay mixture contained 0.1 mM unlabeled ATP, 0.01 μCi/μl ^33P-γ-ATP, 0.03 mM peptide, 0.1 mg/ml BSA, 7.5 mM magnesium acetate, 50 mM HEPES-NaOH, pH 7.5. The reaction was stopped by adding 50 μl of 50 mM phosphoric acid. 90 μl of the mixture were transferred to a pre-wetted 96-well Multiscreen MAPHNOB filtration plate (Millipore) and filtered on a vacuum manifold. […] The filtration plate was dried for 10 min at 65° C., scintillant added and phosphorylated peptide quantified in a scintillation counter (Trilux, PerkinElmer)
HEPES is N-[2-Hydroxyethyl]piperazine-N′-[2-ethanesulfonic acid] BSA is bovine serum albumin.

GST-Chk1 enzyme = molecular target: T1, GST-Chk1 enzyme (Homo sapiens, UniProt O14757); assay: Chk1 kinase inhibition assay (33P phosphorylation of Chktide, filter plate); details: 0.01 mM ATP, 11 nM GST-Chk1, 40 minutes at 30° C.; read-out: Chk1 IC50
T1 sequence (O14757 1-476): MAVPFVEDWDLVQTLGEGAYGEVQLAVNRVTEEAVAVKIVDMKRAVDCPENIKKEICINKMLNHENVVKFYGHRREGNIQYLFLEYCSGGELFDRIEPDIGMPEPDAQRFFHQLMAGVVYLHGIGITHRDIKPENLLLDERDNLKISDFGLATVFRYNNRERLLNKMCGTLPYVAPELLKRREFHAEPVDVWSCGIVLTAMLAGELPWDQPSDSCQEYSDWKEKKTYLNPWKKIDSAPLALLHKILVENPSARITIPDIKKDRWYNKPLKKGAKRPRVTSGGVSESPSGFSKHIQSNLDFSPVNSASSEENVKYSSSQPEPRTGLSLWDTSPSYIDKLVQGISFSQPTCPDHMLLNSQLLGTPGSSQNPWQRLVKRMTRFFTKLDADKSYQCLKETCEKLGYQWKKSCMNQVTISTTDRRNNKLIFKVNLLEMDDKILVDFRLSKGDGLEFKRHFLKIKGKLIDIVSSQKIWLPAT
Description: The assay mixture containing the inhibitor and Chk1 enzyme was mixed together in a microtiter plate in a final volume of 50 μl and incubated for 40 minutes at 30° C.
The reaction was stopped by adding 50 μl of 50 mM phosphoric acid. 90 μl of the mixture was transferred to a pre-wetted 96-well Multiscreen MAPHNOB filtration plate (Millipore) and filtered on a vacuum manifold. […] The filtration plate was dried for 10 min at 65° C., scintillant added and phosphorylated peptide quantified in a scintillation counter (Trilux, PerkinElmer)

PDK1 enzyme = molecular target: T2, PDK1 enzyme (Homo sapiens, UniProt O15530); assay: PDK1 kinase inhibition assay (33P phosphorylation of synthetic peptide, filter plate); details: 0.01 mM ATP, 60 min at 30° C.; read-out: PDK1 IC50
T2 sequence (O15530 1-556): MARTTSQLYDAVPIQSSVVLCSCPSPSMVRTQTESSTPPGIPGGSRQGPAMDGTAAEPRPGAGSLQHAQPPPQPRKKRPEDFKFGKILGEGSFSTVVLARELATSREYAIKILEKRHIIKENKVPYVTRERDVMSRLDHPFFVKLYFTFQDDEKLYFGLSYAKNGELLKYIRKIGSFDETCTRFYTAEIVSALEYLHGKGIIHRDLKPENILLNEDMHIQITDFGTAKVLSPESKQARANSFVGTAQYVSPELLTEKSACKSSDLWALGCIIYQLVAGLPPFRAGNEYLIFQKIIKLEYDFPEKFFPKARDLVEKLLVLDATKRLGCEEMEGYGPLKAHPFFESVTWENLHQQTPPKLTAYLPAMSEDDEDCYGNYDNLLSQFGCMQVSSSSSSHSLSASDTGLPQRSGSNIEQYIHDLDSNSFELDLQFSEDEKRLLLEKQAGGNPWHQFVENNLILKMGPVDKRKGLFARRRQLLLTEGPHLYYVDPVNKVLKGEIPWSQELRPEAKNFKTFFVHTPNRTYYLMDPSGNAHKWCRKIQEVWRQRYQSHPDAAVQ
Description: as §1, with “and PDK1 enzyme” for “and CDK-2 enzyme, complexed with cyclin A (0.4 U/ml)”, “for 60” for “for 40”, “contained 0.01” for “contained 0.1”, “^33P-γ-ATP, 0.075” for “^33P-γ-ATP, 0.03”, “acetate, 0.05M Tris.HCl,” for “acetate, 50 mM HEPES-NaOH,”, “pH 7.5, 0.5% 2-mercaptoethanol.” for “pH 7.5.”

Compound | IC50 [1] [µM] | IC50 (GST-Chk1 enzyme) [µM] | IC50 (PDK1 enzyme) [µM]
CC(C)c1cnn2c(Nc3ccc(S(=O)(=O)N(C)C)cc3)cc(NC3CCCCC3)nc12 [Example 63] | 0.355 | > 200 | > 200
CC(C)c1cnn2c(Nc3ccc(S(=O)(=O)N(C)C)cc3)cc(NCC(C)(C)CN(C)C)nc12 [Example 106] | 3.34 | 18.2 | 14.4
CCNc1cc(Nc2ccc(S(C)(=O)=O)cc2)n2ncc(C(C)C)c2n1 [Example 56] | 0.85 | > 200 | 45.3
CC(C)c1cnn2c(Nc3ccc(S(=O)(=O)N(C)CCO)cc3)cc(N3CCCC(CO)C3)nc12 (stereo not drawn) [Example 55] | 0.27 | > 200 | > 200
Fc1ccc(Nc2cc(-c3ccccc3)nc3ccnn23)cc1 [Example 1, 5-Phenyl-7-(4-fluorophenylamino)pyrazolo[1,5-a]pyrimidine hydrochloride] | 6.09 | > 200 | > 200
CCc1cnn2c(Nc3ccc(S(C)(=O)=O)cc3)cc(N[C@H]3CC[C@@H](N)CC3)nc12 [Example 173] | 2.17 | 4 | 15.2
CC(C)COc1cc(Nc2ccc(S(=O)(=O)N(C)CCN(C)C)cc2)n2ncc(C(C)C)c2n1 [Example 72] | 1.28 | 8.4 | > 200
CC(C)c1cnn2c(Nc3ccc(S(=O)(=O)NCCO)cc3)cc(Cl)nc12 [Example 37] | 1.51 | > 200 | > 200
CC(C)COc1cc(Nc2ccc(S(=O)(=O)NCCN(C)C)cc2)n2ncc(C(C)C)c2n1 [Example 90] | 0.373 | 5.42 | > 200
CC(C)c1cnn2c(Nc3ccc(S(C)(=O)=O)cc3)cc(N(C)CCO)nc12 [Example 59] | 0.768 | > 200 | > 200
CN(C)S(=O)(=O)c1ccc(Nc2cc(N[C@H]3CC[C@@H](N)CC3)nc3c(Br)cnn23)cc1 [Example 140] | 3.66 | 0.5 | 5.29
CC(C)c1cnn2c(Nc3ccc(S(=O)(=O)N(C)C)cc3)cc(NCCCN3CCOCC3)nc12 [Example 102] | 0.965 | > 200 | > 200
Oc1cccc(-c2cc(Nc3ccccc3)n3nccc3n2)c1 [Example 6] | 5.65 | > 200 | > 200
O=S(=O)(Nc1ccccn1)c1ccc(Nc2cc(Cl)nc3ccnn23)cc1 [Example 10] | 1.63 | > 200 | > 200
Cc1cccc(-c2cc(Nc3ccc(S(=O)(=O)Nc4nccs4)cc3)n3nccc3n2)c1 [Example 17] | 3.17 | > 200 | 31.6
CC1(C)CC(Nc2cc(Nc3ccc(S(=O)(=O)Nc4nccs4)cc3)n3ncc(Br)c3n2)CC(C)(C)N1 [Example 166] | 16.9 | 17 | 2.15
COc1cc(Nc2ccc(S(=O)(=O)N(C)C)cc2)n2ncc(C(C)C)c2n1 [Example 66] | 0.876 | > 200 | > 200
NS(=O)(=O)c1ccc(Nc2cc(Cl)nc3ccnn23)cc1 [Example 12] | 0.72 | > 200 | > 200
CC(C)c1cnn2c(Nc3ccc(S(=O)(=O)N4CCC(O)CC4)cc3)cc(Cl)nc12 [Example 33] | 0.271 | > 200 | > 200
CC(C)c1cnn2c(Nc3ccc(S(=O)(=O)N(C)C)cc3)cc(N3CCCC(C(=O)O)C3)nc12 (stereo not drawn) [Example 82] | 4.23 | > 200 | > 200
CC(C)c1cnn2c(Nc3ccc(S(=O)(=O)N(C)C)cc3)cc(N(C)c3ccncc3)nc12 [Example 119] | 22.7 | > 200 | > 200
CC(C)c1cnn2c(Nc3ccc(S(=O)(=O)N(C)CCO)cc3)cc(N3CCC(O)CC3)nc12 [Example 48] | 1.46 | > 200 | > 200
CC(C)c1cnn2c(Nc3ccc(S(=O)(=O)N(C)C)cc3)cc(N(C)C3CCN(C)CC3)nc12 [Example 87] | 0.84 | 16.3 | > 200
CC(C)c1cnn2c(Nc3ccc(S(=O)(=O)N(C)C)cc3)cc(N3CCN(CC4CCN(C)CC4)CC3)nc12 [Example 109] | 10.3 | 15.2 | > 200

The next molecules have a lower IC50 [1] than those just listed; values first:

IC50 [1] [µM] | IC50 (GST-Chk1 enzyme) [µM] | IC50 (PDK1 enzyme) [µM] | Compound
0.127 | > 200 | > 200 | CC(C)c1cnn2c(Nc3ccc(S(=O)(=O)N(C)CCO)cc3)cc(Cl)nc12 [Example 34]
0.14 | > 200 | > 200 | CC[C@H](CO)Nc1cc(Nc2ccc(S(=O)(=O)N(C)C)cc2)n2ncc(C(C)C)c2n1 [Example 83]
0.04 | > 200 | > 200 | CC(C)c1cnn2c(Nc3ccc(S(=O)(=O)N(C)CCN(C)C)cc3)cc(Cl)nc12 [Example 60]
0.03 | > 200 | 4.64 | CNS(=O)(=O)c1ccc(Nc2cc(N[C@H]3CC[C@H](N)CC3)nc3c(C(C)C)cnn23)cc1 [Example 67]
0.107 | > 200 | > 200 | CCc1cnn2c(Nc3ccc(S(C)(=O)=O)cc3)cc(Cl)nc12 [Example 43]
0.177 | > 200 | > 200 | CC(C)c1cnn2c(Nc3ccc(S(=O)(=O)N(C)C)cc3)cc(N3CCCC3CO)nc12 (stereo not drawn) [Example 104]
0.239 | > 200 | > 200 | CCc1cnn2c(Nc3ccc(S(=O)(=O)N(C)C)cc3)cc(Cl)nc12 [Example 52]
0.004 | 0.72 | 168 | CN(C)S(=O)(=O)c1ccc(Nc2cc(N[C@H]3CC[C@H](N)CC3)nc3c(C4CCCC4)cnn23)cc1 [Example 167]
0.032 | 6.63 | 11 | CNS(=O)(=O)c1ccc(Nc2cc(N[C@H]3CC[C@H](N)CC3)nc3c(C(C)C)cnn23)cc1 [Example 61]
0.024 | > 200 | 3.81 | CC(C)c1cnn2c(Nc3ccc(S(=O)(=O)N(C)C)cc3)cc(N[C@H]3CC[C@H](O)CC3)nc12 [Example 101]
0.128 | > 200 | > 200 | CN(C)S(=O)(=O)c1ccc(Nc2cc(Cl)nc3c(Br)cnn23)cc1 [Example 76]
0.08 | 11 | > 50 | NC(=O)c1ccc(Nc2cc(Cl)nc3c(Br)cnn23)cc1 [Example 145]
0.191 | > 200 | > 200 | CC(C)c1cnn2c(Nc3ccc(S(=O)(=O)NCC4CCCO4)cc3)cc(Cl)nc12 (stereo not drawn) [Example 35]
0.179 | > 200 | 79.1 | CCc1cnn2c(Nc3ccc(S(C)(=O)=O)cc3)cc(OCC(C)C)nc12 [Example 44]
